Target: T1, androgen receptor (AR) splicing variant AR-v7 (Homo sapiens, UniProt P10275)
T1 construct: The degradation activity of compounds on AR-v7 in 22RV1 cells; host or cells: 22RV1 cells
T1 sequence (P10275 1-644 isoform P10275-3): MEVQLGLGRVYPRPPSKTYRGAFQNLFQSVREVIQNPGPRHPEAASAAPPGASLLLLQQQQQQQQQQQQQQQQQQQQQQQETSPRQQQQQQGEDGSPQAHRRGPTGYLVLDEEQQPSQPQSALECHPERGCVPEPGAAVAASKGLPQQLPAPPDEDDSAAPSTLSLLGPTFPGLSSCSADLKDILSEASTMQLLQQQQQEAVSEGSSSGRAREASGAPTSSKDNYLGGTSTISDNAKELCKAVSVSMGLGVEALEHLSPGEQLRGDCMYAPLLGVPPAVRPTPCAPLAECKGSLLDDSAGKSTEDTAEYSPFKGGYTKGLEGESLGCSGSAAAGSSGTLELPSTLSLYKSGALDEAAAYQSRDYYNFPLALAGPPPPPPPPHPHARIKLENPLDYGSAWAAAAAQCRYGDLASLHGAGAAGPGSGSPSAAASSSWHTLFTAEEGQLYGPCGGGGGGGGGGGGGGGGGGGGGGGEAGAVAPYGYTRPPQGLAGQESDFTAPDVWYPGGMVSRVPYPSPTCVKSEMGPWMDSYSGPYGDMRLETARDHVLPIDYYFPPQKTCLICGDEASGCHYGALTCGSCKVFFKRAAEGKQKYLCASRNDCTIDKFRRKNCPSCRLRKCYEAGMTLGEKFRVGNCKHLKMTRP
Assay: Degradation activity on androgen receptor splicing variant AR-v7 in 22RV1 cells (ELISA)
Type: cell-based
Conditions: AR-v7 degradation in 22RV1 cells, 48 h
Protocol: The degradation activity of the compound of the present invention on the androgen receptor splicing variant AR-V7 was analyzed using enzyme-linked immunosorbent assay (ELISA).
The plate was cultured in a 5% CO2 cell incubator at 37° C. for 2 days until the cells adhered to the wall. • 2) The drug was prepared into 10 mM stock solution with dimethylsulfoxide (DMSO). […] The plate was gently shaken and mixed. In addition, negative control wells (only containing culture medium) and positive control wells (only containing cells and DMSO) were set. • 3) After the cells were cultured in an incubator for 48 h, the medium was removed and the cells were rinsed once with ice cold PBS. Then, ice-cold 1× cell lysis buffer was added to each well of the cell culture plate. After the plate was incubated on ice for 15 min, the plate was tapped to mix. • 4) The supernatant of the cell lysate was transferred from the cell culture plate to a […] plate for ELISA. • 5) The newly prepared Capture antibody (green) was mixed with the newly prepared HRP-labeled antibody (red), and then the antibody mixture was added to the above 96-well ELISA plate. • 6) The ELISA plate was sealed with plastic film, and then incubated in a 25° C. incubator for 1 h. • 7) The washing buffer was added to each well, and then TMB substrate was added to each well of the ELISA plate. Subsequently, the plate was cultured in an incubator at 37° C. for 5 min. • 8) 100 μl of stop solution was added to each well of the ELISA plate, and the plate was gently tapped for several seconds. The absorbance was read at 450 nm within 30 min. The data were analyzed by the Dose-response equation in the software GraphPad Prism8, to obtain DC50 and Dmax values.

DC50 (numeric values)	DC50 (class symbols)	SMILES
> 10 µM		CC(C)(c1ccc(OCCCCCCCCN2CC3(C2)CN(c2ccc4c(c2)C(=O)N(C2CCC(=O)NC2=O)C4=O)C3)cc1)c1ccc(OCc2ccnc(NS(C)(=O)=O)n2)cc1 (stereo not drawn) [Example 30, N-(4-((4-(2-(4-((8-(6-(2-(2,6-dioxopiperidin-3-yl)-1,3-dioxoisoindolin-5-yl)-2,6-diazaspiro[3.3]heptan-2-yl)octyl)oxy)phenyl)propan-2-yl)phenoxy)methyl)pyrimidin-2-yl)methanesulfonamide]
> 10 µM		CC(C)(c1ccc(OCc2ccnc(NS(C)(=O)=O)n2)cc1)c1ccc(OC2CCN(c3ccc4c(c3)C(=O)N(C3CCC(=O)NC3=O)C4=O)CC2)cc1 (stereo not drawn) [Example 34, N-(4-((4-(2-(4-((1-(2-(2,6-dioxopiperidin-3-yl)-1,3-dioxoisoindolin-yl)piperidin-4-yl)oxy)phenyl)propan-2-yl)phenoxy)methyl)pyrimidin-2-yl)methanesulfonamide]
> 10 µM		CC(C)(c1ccc(OCc2ccnc(NS(C)(=O)=O)n2)cc1)c1ccc(OC2CCN(c3cccc4c3C(=O)N(C3CCC(=O)NC3=O)C4=O)CC2)cc1 (stereo not drawn) [Example 35, N-(4-((4-(2-(4-((1-(2-(2,6-dioxopiperidin-3-yl)-1,3-dioxoisoindolin-4-yl)piperidin-4-yl)oxy)phenyl)propan-2-yl)phenoxy)methyl)pyrimidin-2-yl)methanesulfonamide]
	1 to 5 µM	CC(C)(c1ccc(OCCCNc2ccc3c(c2)C(=O)N(C2CCC(=O)NC2=O)C3=O)cc1)c1ccc(OCc2ccnc(NS(C)(=O)=O)n2)cc1 (stereo not drawn) [Example 37, N-(4-((4-(2-(4-(3-((2-(2,6-dioxopiperidin-3-yl)-1,3-dioxoisoindolin-5-yl)amino)propoxy)phenyl)propan-2-yl)phenoxy)methyl)pyrimidin-2-yl)methanesulfonamide]
> 5 µM		CC(C)(c1ccc(OCCCCCNc2ccc3c(c2)C(=O)N(C2CCC(=O)NC2=O)C3=O)cc1)c1ccc(OCc2ccnc(NS(C)(=O)=O)n2)cc1 (stereo not drawn) [Example 38, N-(4-((4-(2-(4-((5-((2-(2,6-dioxopiperidin-3-yl)-1,3-dioxoisoindolin-5-yl)amino)pentyl)oxy)phenyl)propan-2-yl)phenoxy)methyl)pyrimidin-2-yl)methanesulfonamide]
> 10 µM		CC(C)(c1ccc(OCc2ccnc(NS(C)(=O)=O)n2)cc1)c1ccc(OC[C@H]2CC[C@H](CN3CCC(CN4CCC5(CC4)CN(c4ccc6c(c4)C(=O)N(C4CCC(=O)NC4=O)C6=O)C5)CC3)CC2)cc1 (stereo partly drawn) [Example 39]
> 10 µM		CC(C)(c1ccc(OCc2ccnc(NS(C)(=O)=O)n2)cc1)c1ccc(OCC2CCN(CCCOCCCNc3ccc4c(c3)C(=O)N(C3CCC(=O)NC3=O)C4=O)CC2)cc1 (stereo not drawn) [Example 40]
> 10 µM		CC(C)(c1ccc(OCc2ccnc(NS(C)(=O)=O)n2)cc1)c1ccc(OC[C@H]2CC[C@H](CN3CCC(CN4CCN(c5ccc6c(c5)C(=O)N(C5CCC(=O)NC5=O)C6=O)CC4)CC3)CC2)cc1 (stereo partly drawn) [Example 43]
	0.101 to 1 µM	CCS(=O)(=O)Nc1nccc(COc2ccc(C(C)(C)c3ccc(OCCCCCCCCOCCCCNc4ccc5c(c4)C(=O)N(C4CCC(=O)NC4=O)C5=O)cc3)cc2)n1 (stereo not drawn) [Example 44]
8.76 µM		CC(C)(c1ccc(OCc2ccnc(NS(C)(=O)=O)n2)cc1)c1ccc(OCC2CCN(C[C@H]3CC[C@H](CN4CCN(c5ccc6c(c5)C(=O)N(C5CCC(=O)NC5=O)C6=O)CC4)CC3)CC2)cc1 (stereo partly drawn) [Example 45]
> 5 µM		CC(C)(c1ccc(OCc2ccnc(NS(C)(=O)=O)n2)cc1)c1ccc(OC2CN(c3ccc4c(c3)C(=O)N(C3CCC(=O)NC3=O)C4=O)C2)cc1 (stereo not drawn) [Example 46, N-(4-((4-(2-(4-((1-(2-(2,6-dioxopiperidin-3-yl)-1,3-dioxoisoindolin-5-yl)azetidin-3-yl)oxy)phenyl)propan-2-yl)phenoxy)methyl)pyrimidin-2-yl)methanesulfonamide]
	0.101 to 1 µM	CC(C)(c1ccc(OCc2ccnc(NS(C)(=O)=O)n2)cc1)c1ccc(OC2CN(c3cccc4c3C(=O)N(C3CCC(=O)NC3=O)C4=O)C2)cc1 (stereo not drawn) [Example 47, N-(4-((4-(2-(4-((1-(2-(2,6-dioxopiperidin-3-yl)-1,3-dioxoisoindolin-4-yl)azetidin-3-yl)oxy)phenyl)propan-2-yl)phenoxy)methyl)pyrimidin-2-yl)methanesulfonamide]
> 10 µM		CC(C)(c1ccc(OCc2ccnc(NS(C)(=O)=O)n2)cc1)c1ccc(OCC2CN(c3ccc4c(c3)C(=O)N(C3CCC(=O)NC3=O)C4=O)C2)cc1 (stereo not drawn) [Example 48, N-(4-((4-(2-(4-((1-(2-(2,6-dioxopiperidin-3-yl)-1,3-dioxoisoindolin-5-yl)azetidin-3-yl)methoxy)phenyl)propan-2-yl)phenoxy)methyl)pyrimidin-2-yl)methanesulfonamide]
	1 to 5 µM	CC(C)(c1ccc(OCc2ccnc(NS(C)(=O)=O)n2)cc1)c1ccc(OCC2CN(c3cccc4c3C(=O)N(C3CCC(=O)NC3=O)C4=O)C2)cc1 (stereo not drawn) [Example 49, N-(4-((4-(2-(4-((1-(2-(2,6-dioxopiperidin-3-yl)-1,3-dioxoisoindolin-4-yl)azetidin-3-yl)methoxy)phenyl)propan-2-yl)phenoxy)methyl)pyrimidin-2-yl)methanesulfonamide]
	0.101 to 1 µM	CC(C)(c1ccc(OCCCCCCCCOCCCCNc2ccc3c(c2)C(=O)N(C2CCC(=O)NC2=O)C3=O)cc1)c1ccc(OCc2ccnc(NS(=O)(=O)C3CC3)n2)cc1 (stereo not drawn) [Example 50]
	0.101 to 1 µM	CC(C)(c1ccc(OCCCCCCCCOCCCCNc2ccc3c(c2)C(=O)N(C2CCC(=O)NC2=O)C3=O)cc1)c1ccc(OCc2cnc(NS(C)(=O)=O)nc2)cc1 (stereo not drawn) [Example 51]
> 10 µM		CC(C)(c1ccc(OCCCCCOCCCOCC2CCN(c3ccc4c(c3)C(=O)N(C3CCC(=O)NC3=O)C4=O)C2)cc1)c1ccc(OCc2ccnc(NS(C)(=O)=O)n2)cc1 (stereo not drawn) [Example 52, N-(4-((4-(2-(4-((5-(3-((1-(2-(2,6-dioxopiperidin-3-yl)-1,3-dioxoisoindolin-5-yl)pyrrolidin-3-yl)methoxy)propoxy)pentyl)oxy)phenyl)propan-2-yl)phenoxy)methyl)pyrimidin-2-yl)methanesulfonamide]

SMILES	DC50 (numeric values)	DC50 (class symbols)
CC(C)(c1ccc(OCCCCCCCCOCCCCNc2ccc3c(c2)C(=O)N(C2CCC(=O)NC2=O)C3=O)cc1)c1ccc(OCc2cncc(NS(C)(=O)=O)n2)cc1 (stereo not drawn) [Example 31, N-(6-((4-(2-(4-((8-(4-((2-(2,6-dioxopiperidin-3-yl)-1,3-dioxoisoindolin-5-yl)amino)butoxy)octyl)oxy)phenyl)propan-2-yl)phenoxy)methyl)pyrazin-2-yl)methanesulfonamide]	> 10 µM	
CC(C)(c1ccc(OCCCCCCCCOCCCCNc2ccc3c(c2)C(=O)N(C2CCC(=O)NC2=O)C3=O)cc1)c1ccc(OCc2nccc(NS(C)(=O)=O)n2)cc1 (stereo not drawn) [Example 32, N-(2-((4-(2-(4-((8-(4-((2-(2,6-dioxopiperidin-3-yl)-1,3-dioxoisoindolin-5-yl)amino)butoxy)octyl)oxy)phenyl)propan-2-yl)phenoxy)methyl)pyrimidin-4-yl)methanesulfonamide]	> 10 µM	
CC(C)(c1ccc(OCCCCCCCCOCCCCNc2ccc3c(c2)C(=O)N(C2CCC(=O)NC2=O)C3=O)cc1)c1ccc(OCc2cccc(NS(C)(=O)=O)n2)cc1 (stereo not drawn) [Example 33, N-(6-((4-(2-(4-((8-(4-((2-(2,6-dioxopiperidin-3-yl)-1,3-dioxoisoindolin-5-yl)amino)butoxy)octyl)oxy)phenyl)propan-2-yl)phenoxy)methyl)pyridin-2-yl)methanesulfonamide]		0.101 to 1 µM
CC(C)(c1ccc(OCc2ccnc(NS(C)(=O)=O)n2)cc1)c1ccc(OC2CCN(CCCCOCCCCNc3ccc4c(c3)C(=O)N(C3CCC(=O)NC3=O)C4=O)CC2)cc1 (stereo not drawn) [Example 36, N-(4-((4-(2-(4-((1-(4-(4-(4-)((2-(2,6-dioxopiperidin-3-yl)-1,3-dioxoisoindolin-5-yl)amino)butoxy)butyl)piperidin-4-yl)oxy)phenyl)propan-2-yl)phenoxy)methyl)pyrimidin-2-yl)methanesulfonamide]	> 10 µM	

From patent US20250051347A1, “BIFUNCTIONAL CHIMERIC HETEROCYCLIC COMPOUND AND USE THEREOF AS ANDROGEN RECEPTOR DEGRADER” (Hinova Pharmaceuticals, Inc., priority 2021, published 2025)
